Drawing on BindingDB's records for doi:10.1021/jm00196a019 (1979), this text covers IC50 for 1 compound.

This assay has as its system Enterococcus faecalis. Kind of assay: Antibacterial activity against Streptococcus faecalis assessed as growth inhibition.

As for `Nc1nc(N)c2cc(S(=O)(=O)c3ccc4ccccc4c3)ccc2n1` [6-naphthalen-2-ylsulfonylquinazoline-2,4-diamine], the IC50 was 0.02 nM.
